# Source: a melting point compilation (Tetko et al.; mined from patent text by program, amines drawn as free bases though some values may be those of a salt)
# Residues, ends and D or L forms follow the SMILES beside them. *: point of attachment. For = O=C*
row,melting point [°C],Structure (SMILES)
1,161,CCCCC(=O)CC1c2ccccc2C(=O)N1c1ccc2ccc(OC)nc2n1 (stereo not given)
2,175 to 177,COc1cn(-c2ccc(N3CC(F)(F)C(F)(F)C3)cc2F)nc(-c2ccnn2-c2ccccc2)c1=O
3,208,NS(=O)(=O)c1cccc(-c2cccc(-c3nc(-c4ccc(F)cc4)cc(C(F)(F)F)n3)c2)c1
4,168 to 170,O=C(c1cccs1)c1cccc(O)c1C(=O)O
5,180 to 181,O=C(Nc1c[nH]nc1C(=O)NCCSc1ccccc1)c1ccccn1
6,39 to 40,CCCCC(CNc1ncc(OC)c(C)n1)c1ccccc1 (stereo not given)
7,83,CC(=O)n1ncc2c(OCC3CO3)cccc21 (stereo not given)
8,146 to 147,Cc1cc(O)c([N+](=O)[O-])c(=O)n1CC(=O)OCc1ccccc1
9,153 to 169,Cc1c2n(c3ccccc13)C(=O)C(C(O)c1ncn(C(c3ccccc3)(c3ccccc3)c3ccccc3)c1C)CC2 (stereo not given)
10,98.1,c1ccc(C(c2ccc3nccnc3c2)n2cnnc2)cc1 (stereo not given)
11,150 to 152,CCN(CC)C(=O)c1ccc2ccccc2c1-c1ccccc1C
12,111 to 112,CCCCCCCCOc1ccc(C(=O)Oc2ccc(C3CCC(O)CC3)cc2)cc1 (stereo not given)
13,181 to 183,COC(=O)CNC(=O)[C@H](CSC(=O)c1ccccc1)NC(=O)CNC(=S)CC(=O)c1ccccc1
14,200 to 203,NS(=O)(=O)c1cc2cc(OCC(=O)O)ccc2s1
15,99 to 101,CC(C)N1C(=O)c2ccccc2N(C#N)S1(=O)=O
16,93 to 95,CCOP(=O)(OCC)C(C)CNC(=O)CCl (stereo not given)
17,152 to 154,CC1CCc2c(c(OCc3ccccn3)nn3c(-c4ccccc4)nnc23)C1 (stereo not given)
18,114 to 120,O=C(CNC(=O)c1ccccc1)c1ccccc1
19,163 to 164,CCCCCCCCc1cc2cc(O)ccc2c(Oc2ccc(/C=C/C(=O)O)cc2)c1-c1ccccc1
20,281 to 284,COc1ccc(-c2nnc3c4ccccc4c(Nc4ccc(-c5nn[nH]n5)cc4)nn23)cc1
21,138 to 139,NC(=O)c1ccccc1NCc1ccc(Cl)cc1

row,melting point [°C],Structure (SMILES)
1,148 to 149,CS(=O)c1ccc(C2=C(c3cccc(F)c3)C(=O)C(C)(C)O2)cc1F (stereo not given)
2,168 to 171,COc1ccc2c(n1)C1(CO2)C(=O)N(Cc2ccccn2)c2ccccc21 (stereo not given)
3,113 to 117,COc1cc(CCCCCCC2OC(=O)NC2=O)ccc1OCc1nc(-c2ccccc2)oc1C (stereo not given)
4,254 to 257,O=C(O)c1coc(-c2ccc(Cl)c(C(=O)NCC34CC5CC(CC(C5)C3)C4)c2)n1
5,120 to 121,CC(=NOCC=Cc1ccccc1)C(=O)Cl
6,124 to 125,O=C(NCCCCl)Nc1c(Cl)cccc1C(=O)O
7,254 to 256,O=C(NNC(=O)c1ccc([N+](=O)[O-])cc1)c1ccccc1
8,62 to 64,O=c1oc2ccccc2n1CCCCl
9,167,CCOC(=O)c1cnn(C)c1C(=O)Nc1ccn2nc(N(C)CC)nc2c1
10,211 to 212,O=C(Nc1ccc(C(=O)N2Cc3cccn3Cc3ccccc32)cc1)c1cccnc1Oc1ccc(Cl)cc1
11,220,Cn1c2nc3ccccc3nc2c2cccc(C=O)c21
12,239 to 241,N#Cc1cccc(C2=Nc3ccc(C#Cc4ccc(OC(F)(F)F)cc4)cc3NC(=O)C2)c1
13,128 to 129,CCC(=O)NCC(CO)c1cccc2ccc(OC)cc12 (stereo not given)
14,119 to 120,CC(=O)Oc1ccc(-c2c(C)c3cccc(OC(C)=O)c3oc2=O)c(OC(C)=O)c1
15,69 to 72,O=C(NCCCCCCO)OC1CCN(C(=O)Oc2ccc(Oc3ccccc3)cc2)CC1
16,175 to 177,CCOc1cc(C(=CC#N)c2ccc(NC(C)=O)cc2)ccc1OC
17,137 to 139,CCOC(=O)N(c1ccc(Cl)cc1N)c1ccc(Cl)cc1Cl
18,124,COC(=O)C(Cc1ccccc1)NC(=O)C(CC(=O)O)NC=O (stereo not drawn) (For-Asp-Phe-OMe; configuration not given here)
19,82 to 86,Cc1ccc(S(=O)(=O)NC[C@H](C)N)cc1
20,134 to 139,CSC1C(=O)Nc2c(Oc3cccc4ccccc34)cccc21 (stereo not given)
21,218 to 220,CN1C(=O)CC[C@]2(C)c3ccc(-c4cc5ccccc5c5ccccc45)cc3CC[C@@H]12

row,melting point [°C],Structure (SMILES)
1,177 to 178,Cc1ccccc1N(C(=O)Nc1cc(C)c(S(=O)(=O)C[N+](=O)[O-])c(C)c1)C(C)C
2,> 251,COc1ccccc1CN[C@H]1CCCN[C@H]1C(C)(C)C (relative stereo)
3,158 to 164,O=C(O)CCC(=O)N1CCN2C(=O)OC(c3ccccc3)(c3ccccc3)C2C1 (stereo not given)
4,238 to 240,O=C(CC1Sc2ccccc2NC1=O)NCc1ccccc1 (stereo not given)
5,119,CCO[C@@H](Cc1ccc(-c2nc([N+](=O)[O-])nn2C)cc1)C(=O)OC
6,182 to 184,CC(C)CC1=CC(c2ccccc2)C2=C(CCCC2=O)N1 (stereo not given)
7,147 to 149,CCCOc1ccccc1-c1nc2cc3c(cc2c(=O)[nH]1)NCN3CC
8,155 to 157,CCCCc1nn(-c2cc(N)ccc2Cl)c(=O)n1Cc1ccc(-c2ccccc2S(=O)(=O)NC(=O)c2ccccc2Cl)cc1
9,165 to 168,CC(C)N1C(=O)NC(c2ccccc2)c2cc3c(cc21)OCO3 (stereo not given)
10,115 to 116,CCOC(=O)CCNC(=O)Nc1ccc([N+](=O)[O-])cc1O
11,77,O=C(NO)[C@H](CNS(=O)(=O)c1ccc(OCCc2ccccc2)cc1)N1CCOCC1
12,90 to 92,C=C(C)COc1ccc(Br)cc1CN(CC)c1ccc(-c2nnco2)nn1
13,150 to 152,COC(=O)COc1nc(N)nc(-c2ccccc2)c1-c1ccc(=O)n(C(C)C)n1
14,94,CC(=O)Nc1ccc(OCCOCCO)cc1
15,58 to 60,CC(C)n1c(Cl)nc2ccccc21
16,192,O=C(O)C(=NOCc1cccnc1)c1csc(NC(c2ccccc2)(c2ccccc2)c2ccccc2)n1
17,178 to 180,Cc1nnc2c(-c3ccccc3)nccn12
18,275 to 278,CC1=C(C(=O)NCc2ccncc2)SCN1n1ccc(O)cc1=O
19,149 to 150,COc1ccc(-c2cc3c(OC)cc(OC)cc3nc2OCC#N)cc1
20,249 to 251,O=C(O)c1ccc(COCc2csc3nc(C(=O)NCc4ccc(F)c(F)c4)[nH]c(=O)c23)cc1

# Further lines, the compound ahead of its results:
row,Structure (SMILES),melting point [°C]
1,CCCCCCCCCCCCCCCCC(CO)OC (stereo not given),36 to 38
2,CCCN1CCC(c2n[nH]c3cc(F)ccc23)CC1,175 to 177
3,c1cnc(-c2noc(C3CC3)n2)cn1,95 to 98
4,N#Cc1cc(F)c(NN)cc1F,158
5,O=C(Cl)c1ccncc1,160
6,CCOC(=O)C=C(C)C=CC=C(C)C=Cc1c(C)cc(OC)c(OC)c1C,203 to 204
7,FC(F)c1nc2ccccc2n1-c1nc(Nc2cccnn2)nc(N2CCOCC2)n1,271 to 273
8,Oc1ccc(CN2CCCCC2)c2cccnc12,96
9,N#Cc1ccc(C(=C2CCCCCC2)c2nc[nH]n2)cc1,79 to 80
10,CSc1ccc(Oc2ccc(Cl)c(Cl)c2)nc1C#N,156 to 158
11,CCn1c(C)nc2cc(C(F)(F)F)c(OC)cc21,127 to 130
12,O=C1CNC(=O)N1C1CCNCC1,214 to 217
13,Cc1cc(CCCCCOc2c(C)cc(-c3noc(C)n3)cc2C)on1,45 to 46
14,CC[C@@]1(O)C(=O)OCc2c1cc1n(c2=O)Cc2c-1nc1ccc(Cl)c3c1c2C(NC(C)=O)CN3 (stereo not given in full),250 to 270
15,CC(C)Sc1cc2c(cc1Cl)N=C(C(Cl)Cl)NS2(=O)=O,287 to 289
16,CN1Cc2c(CO)ncn2-c2ccc(F)cc2C1=O,221 to 223
17,COc1ccc2c(Br)csc2c1,62
18,COC(=O)c1cc(C(C)Br)cnc1C1=NC(C)(C(C)C)C(=O)N1 (stereo not given),123 to 126
19,CCS(=O)(=O)Nc1ccc([N+](=O)[O-])cc1OC1CCCCC1,94 to 95
20,O=C1C=C2CCCCC2N1c1ccc(OCCN2CCCCC2)c(Cl)c1 (stereo not given),98
21,CN(C)c1nc2sc3c(NCCN4CCOCC4)ncnc3c2c2c1CCC(C)(C)C2,173 to 175
22,Cc1cc(C)c(C(=O)P(=O)(Oc2ccccc2C(C)(C)C)c2ccccc2)c(C)c1 (stereo not given),76 to 79

row,Structure (SMILES),melting point [°C]
1,COc1cccc2c1CC(n1cc[nH]c1=S)CC2 (stereo not given),249 to 251
2,Cc1c(OC(F)F)ccnc1CSc1nc2ccc(OC(F)F)cc2[nH]1,181 to 182
3,COc1ccc(Nc2nc(Cl)nc(NC3CCCCCC3)n2)cc1Cl,146
4,CC(=O)N1CCn2c(CN3CCOCC3)ccc2C1,117 to 118
5,CC(C)(C)NC(=O)c1nn(-c2ccc(Br)cc2)c2c1C1CCC2CC1,191 to 193
6,O=C(O)C1CCCN2CC(CS)C(=O)N12 (stereo not given),146 to 147
7,"CC(C)(S)C(O)(Cn1cncn1)c1ccc(F)cc1F (single isomer, unassigned; (-))",105
8,CC1C(=O)N(C)C(=O)N(C)C1=O,83 to 85
9,CCCCCCCCCCCCCCCC(Br)CC(=O)O (stereo not given),47 to 51
10,O=C1Nc2c(F)cc(F)cc2C1=O,188 to 194
11,CCCn1c(=O)c2[nH]c(/C=C/c3ccc(OC)c(C)c3OC)nc2n(CCC)c1=O,255 to 256
12,Cc1cccc(S(=O)(=O)n2ccnc2)c1C#N,93 to 95
13,CCc1c(C#N)oc2ccc(Br)cc12,68 to 69
14,Cc1cc2c(Cl)c(C#N)cnc2s1,101 to 102
15,CCCn1c(=O)c2[nH]c(C34CCC(C)(C(=O)O3)C4(C)C)nc2n(CCC)c1=O (stereo not given),200 to 201
16,COc1ccc(CCN(C)C(C)(C)CO)cc1,40
17,Clc1c[nH]nc1-c1cc(Br)cc(Br)c1,188
18,CCCCNC(=S)N1CCc2[nH]cnc2C1CC (stereo not given),180
19,CCOC(=O)c1ncn2c1[C@@H]1CCCN1C(=S)c1ccccc1-2,227 to 229
20,COC(=O)c1cc(-n2c(Cl)nc(C(F)(F)F)cc2=O)c(F)cc1Cl,89 to 91
21,O=Cc1nn(-c2ccc(Br)cc2)c2c1CCCC2,120 to 121
